Measured values as given in patent US11091445B2, “Compounds, process for obtaining the compounds, pharmaceutical composition, use of the compounds and method for treating psychiatric disorders and/or sleep disorders” (Aché Laboratórios Farmacêuticos S.A., priority 2016, dated 2021).

Columns and labels:
[1] = system: cryopreserved hepatocytes from rats (Sprague-Dawley males); assay: Intrinsic clearance in cryopreserved rat hepatocytes; type: in vitro ADME; settings: 37° C.
Description: (§1) Cryopreserved hepatocytes from humans, rats (Sprague-Dawley males) and from mice (CD-1 males) were used for incubation at different times (0, 0.5, 1, 1.5, 2 hours) at 37° C. followed by HPLC-MS/MS detection. The aim was to verify the clearance time of the test substance on hepatocytes. The experiment was performed on a 96-well plate and the cryopreserved hepatocytes were thawed and resuspended in Krebs-Heinslet buffer (pH 7.3). The reaction was started by adding each test compound to each cell suspension and performing the incubation at the times indicated above. The reaction was quenched with addition of acetonitrile in the wells and detection by HPLC-MS/MS (mass spectrometry). MS/MS is performed by combining two mass detectors into a single instrument.

[2] = system: cryopreserved hepatocytes from mice (CD-1 males); assay: Intrinsic clearance in cryopreserved mouse hepatocytes; type: in vitro ADME; settings: 37° C.
Description: as §1

[3] = Pharmacokinetics in CD-1 mouse, I.V. and oral; type: in vivo; settings: intravenous
Description: PK tests were performed with CD-1 mice, using 4 animals per molecule tested, 2 animals for pharmacokinetic analysis by intravenous (IV) administration and 2 animals for oral administration. The treatment was carried out in a single dose: I.V. group with dose of 1 mg/kg and Oral group with dose of 10 mg/kg. […] Blood collection was performed after euthanasia at 08 defined time points and at 24 hours post-dose. The pharmacokinetic analysis parameters detected for Group IV were: half-life (t½), drug concentration at time zero (C0), last measurable plasma concentration (AUClast), area under the plasma concentration curve extrapolation percentage (AUC % ext), area under the plasma concentration curve extrapolation to infinity (AUCinf), volume of distribution (Vz), steady state volume of distribution (Vss), clearance (CL) and mean residence time (MRT). The parameters evaluated for the Oral group were: bioavailability (F %), maximum concentration reached (Cmax), time to reach maximum plasma concentration (Tmax), last measurable plasma concentration (AUClast), area under the plasma concentration curve extrapolation percentage (AUC % ext), area under the plasma concentration curve extrapolation to infinity (AUCinf), area under the plasma concentration curve extrapolation to infinity versus dose (AUCinf/Dose), half-Life (t½), and mean residence time (MRT).

[4] = system: cryopreserved human hepatocytes; assay: Intrinsic clearance in cryopreserved human hepatocytes; type: in vitro ADME; settings: 37° C.
Description: as §1

[5] = target: MT1 receptor (Homo sapiens (Human), UniProt P48039); assay: MT1 functional assay
Chain of MT1 receptor (P48039 whole entry): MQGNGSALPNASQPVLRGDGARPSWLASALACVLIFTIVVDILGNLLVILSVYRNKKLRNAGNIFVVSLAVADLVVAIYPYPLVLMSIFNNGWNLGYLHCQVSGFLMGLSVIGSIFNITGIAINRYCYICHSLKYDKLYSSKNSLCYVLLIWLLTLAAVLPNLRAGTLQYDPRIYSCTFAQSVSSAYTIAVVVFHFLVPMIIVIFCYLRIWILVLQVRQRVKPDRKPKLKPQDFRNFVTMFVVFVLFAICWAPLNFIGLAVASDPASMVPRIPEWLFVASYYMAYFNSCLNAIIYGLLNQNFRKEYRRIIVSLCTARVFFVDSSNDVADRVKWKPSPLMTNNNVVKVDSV

[6] = system: CYP2C9 and CYP2C19; settings: cited from earlier work
[7] = target: T1, CYP1A2 (Homo sapiens (Human), UniProt P05177); assay: CYP inhibition, fluorogenic substrate; type: in vitro ADME
T1 sequence (P05177 whole entry): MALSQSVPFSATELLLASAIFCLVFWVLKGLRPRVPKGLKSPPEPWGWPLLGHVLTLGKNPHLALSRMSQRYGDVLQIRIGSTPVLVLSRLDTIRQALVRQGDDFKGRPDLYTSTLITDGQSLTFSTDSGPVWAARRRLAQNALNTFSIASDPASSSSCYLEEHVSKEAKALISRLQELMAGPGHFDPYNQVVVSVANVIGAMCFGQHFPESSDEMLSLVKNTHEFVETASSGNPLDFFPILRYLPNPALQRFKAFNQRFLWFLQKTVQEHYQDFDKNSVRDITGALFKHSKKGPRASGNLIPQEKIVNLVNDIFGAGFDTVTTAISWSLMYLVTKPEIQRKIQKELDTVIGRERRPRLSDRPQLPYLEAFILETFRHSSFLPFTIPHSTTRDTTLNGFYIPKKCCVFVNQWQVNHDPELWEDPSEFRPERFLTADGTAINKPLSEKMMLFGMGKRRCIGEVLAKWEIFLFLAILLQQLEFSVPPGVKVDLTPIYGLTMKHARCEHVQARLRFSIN
Excerpt: The CYP inhibition test used fluorogenic substrates specific to each CYP to check for inhibition thereof by detection of the expected metabolite using a fluorimetric method. Recombinant CYPs (CYP2B6, CYP2C8, CYP2C9, CYP2C9, CYP2C19, CYP2D6, CYP3A4) from specific humans for each cytochrome family, subfamily and polypeptide were used. The following were used as substrates: CEC (3-Cyano-7-Ethoxycoumarin) which forms as metabolite CHC (3-Cyano-7-Hydroxycoumarin); EFC (7-Ethoxy-4-trifluoromethyl coumarin), forming the metabolite HFC (7-Hydroxytrifluoromethylcoumarin); DBF (Dibenzylfluorescein) and its respective fluorescein metabolite; MFC (7-Methoxy-4-trifluoromethylcoumarin) which forms the metabolite HFC (7-Hydroxytrifluoromethylcoumarin); BFC (7-Benzyloxy-Trifluoromethylcoumarin) and its metabolite HFC; and BzRes (benzyloxyresorufin) to form resofurine. The detection of the metabolite was done with a fluorimetric method: analytical technique to identify and characterize the amount of substance by excitation using a beam of ultraviolet light and measurement of the emitted fluorescence. For detection, a 96-well plate was used. […] Incubations were performed between 20-50 minutes at 37° C. according to the specific parameter of each fluorogenic substrate, for the evaluated component. Fluorescence at each well was detected before and after the incubation period.

[8] = target: T1, CYP1A2; settings: cited from earlier work
[9] = target: MT2 receptor (Homo sapiens (Human), UniProt P49286); assay: MT2 functional assay; type: cell-based
Chain of MT2 receptor (P49286 whole entry): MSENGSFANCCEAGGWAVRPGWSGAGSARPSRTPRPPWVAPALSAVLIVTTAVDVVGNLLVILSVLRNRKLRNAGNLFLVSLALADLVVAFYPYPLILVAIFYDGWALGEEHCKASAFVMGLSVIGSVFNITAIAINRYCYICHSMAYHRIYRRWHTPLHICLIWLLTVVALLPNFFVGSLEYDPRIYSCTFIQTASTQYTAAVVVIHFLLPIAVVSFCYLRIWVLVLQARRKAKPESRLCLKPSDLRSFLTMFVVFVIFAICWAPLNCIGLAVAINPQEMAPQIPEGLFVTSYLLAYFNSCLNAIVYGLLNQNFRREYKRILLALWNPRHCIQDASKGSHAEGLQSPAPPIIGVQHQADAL

[10] = system: melatonin receptors; settings: literature (Depreux et al. 1994); cited from earlier work

| SMILES | Intrinsic clearance half-life, Rat Sprague-Dawley hepatocytes [1] | Intrinsic clearance half-life, Mouse CD-1 hepatocytes [2] | C0 compared to agomelatine [3] | Clearance compared to agomelatine [3] | Intrinsic clearance half-life, Human hepatocytes [4] | intrinsic activity at MT1 [5] | affinity to CYP isoforms, specially CYP1A2 [7] | intrinsic activity at MT2 [9] | fraction metabolized by CYP2C9 and CYP2C19 [6] | fraction metabolized in the liver by CYP1A2 [8] | affinity lower than melatonin affinity [10] |
| --- | --- | --- | --- | --- | --- | --- | --- | --- | --- | --- | --- |
| CCOc1nc2cc(Cl)c(OC)cc2n1CCCNC(C)=O [IA2-142] | >2 h | >2 h | higher | lower | >2 h | – | – | – | – | – | – |
| COc1cc2c(cc1Cl)nc(OC)n2CCNC(C)=O [IA2-143] | 1.8 h | – | higher | lower | – | – | – | – | – | – | – |
| COc1ccc2ncn(CCNC(C)=O)c2c1 [N-[2-(6-methoxybenzimidazol-1-yl)-ethyl]acetamide] | – | – | – | – | – | – | – | – | – | – | approximately 3,200 times |

More lines, main results first:

| Intrinsic clearance half-life, Rat Sprague-Dawley hepatocytes [1] | Intrinsic clearance half-life, Mouse CD-1 hepatocytes [2] | C0 compared to agomelatine [3] | Clearance compared to agomelatine [3] | Intrinsic clearance half-life, Human hepatocytes [4] | intrinsic activity at MT1 [5] | affinity to CYP isoforms, specially CYP1A2 [7] | intrinsic activity at MT2 [9] | SMILES | fraction metabolized by CYP2C9 and CYP2C19 [6] | fraction metabolized in the liver by CYP1A2 [8] | affinity lower than melatonin affinity [10] |
| --- | --- | --- | --- | --- | --- | --- | --- | --- | --- | --- | --- |
| 0.833 h | 0.417 h | – | – | 0.8 h | agonist | high affinity | agonist | COc1ccc2cccc(CCNC(C)=O)c2c1 [IA2-76 (agomelatine), agomelatine] | 10% | Around 90% | – |
| 0.867 h | >2 h | higher | lower | >2 h | – | – | – | CCOc1nc2cc(Cl)c(OC)cc2n1CCNC(C)=O [IA2-121] | – | – | – |
| 0.883 h | >2 h | higher | lower | >2 h | – | – | – | CCOc1nc2ccc(OC)cc2n1CCCNC(C)=O [IA2-120] | – | – | – |
